Laboratory results from US20050277161A1, “Phosphopeptide antigens associated with MHC molecules” (priority 2004, published 2005).
Non-standard residues stand in square brackets, D forms with d. No end group written: not given here. pS = N[C@@H](COP(=O)(O)O)C(=O)O

Tested on: COV413.AAD.A4 ovarian carcinoma, DM331.AAD.A4 and SLM2.AAD.A1 melanomas, MCF7.AAD.A2 and MDAMB231.AAD breast carcinomas, and JY EBV-BLCL
Assay: Recognition of naturally processed phosphopeptides on cancer cells by phosphopeptide-specific CTL (murine IFNγ ELISA)
Format: cell-based
Details: for recognition of the phosphopeptide on cancer cell lines by phosphopeptide-specific CTL (murine IFNγ in supernatant): murine CTL lines 50,000/well incubated 24 hours with 25,000 cancer cells/well, ovarian carcinoma, melanoma and breast carcinoma lines; for recognition of the phosphopeptide on the control cell line by phosphopeptide-specific CTL (murine IFNγ in supernatant): murine CTL lines 50,000/well incubated 24 hours with 25,000 cells/well, control JY EBV-BLCL
Description: FIG. 1, comprising FIGS. 1A and 1B, is a graphic illustration of the recognition of naturally processed and presented phosphorylated peptides on cancer cells by the phosphopeptide-specific CTL. Phosphopeptide-specific CTL were incubated with the following cancer cell lines or EBV-transformed B lymphoblastoid cell lines (BLCL): COV413.AAD.A4 ovarian carcinoma, DM331 .AAD.A4 and SLM2.AAD.A1 melanomas, MCF7.AAD.A2 and MDAMB231.AAD breast carcinomas, and JY EBV-BLCL. Supernatants were harvested and evaluated for the presence of murine IFNγ (produced by murine CTL lines). […] The ordinate indicates murine IFNγ in pg/ml. The abscissa indicates each cell line.
CTL specific for two of the antigen peptides were generated by long term culture with the peptides. Two CTL lines specific for the antigen peptide GLLGpSPVRA, lines 6850 and 6960, SEQ ID NO: 13, and two CTL lines specific for the antigen peptide RVApSPTSGV, SEQ ID NO: 14, lines 5183 and 63 were used to detect these two antigen peptides on cancer cells. The phosphopeptide-specific CTL (50,000 CTL/well) were incubated 24 hours with the following cancer cell lines or EBV-transformed B lymphoblastoid cell lines (BLCL) (25,000 cells/well): COV413.AAD.A4 ovarian carcinoma, DM331.AAD.A4 and SLM2.AAD.A1 melanomas, MCF7.AAD.A2 and MDAMB231.AAD breast carcinomas, and JY EBV-BLCL. Supernatants were harvested 24 hours later and evaluated for the presence of murine IFNγ (produced by murine CTL lines) by ELISA (eBioscience Ready-Set-go murine IFNγ ELISA kit).

Row | Substance | recognition of the phosphopeptide on cancer cell lines by phosphopeptide-specific CTL (murine IFNγ in supernatant) | recognition of the phosphopeptide on the control cell line by phosphopeptide-specific CTL (murine IFNγ in supernatant)
1 | GLLGpSPVRA (GLLG[pS]PVRA; listed as Homo sapiens) [phosphopeptide from CDC25b:p63; HLA-A2.1] | recognize the phosphopeptide on all the cancer cell lines | not the control cell line
2 | RVApSPTSGV (RVA[pS]PTSGV; listed as Homo sapiens) [phosphopeptide from Insulin receptor substrate-2; HLA-A2.1] | recognize the phosphopeptide on all the cancer cell lines | not the control cell line
